Test results reported in patent EP1462117A1, “Method for in vivo detection of antipsychotic properties of dopamine D3 receptor ligands” (priority 2003, dated 2004).
Several values for one entry are separate records, joined by “and”; a condition that tells them apart may be missing. Identical values can stand only once.

Legend:
[1] = system: Swiss mice; assay: MK-801 (dizocilpine)-induced and spontaneous locomotor activity, acute treatment, actimeter; format: in vivo; details: for MK-801-induced hyperactivity: post-hoc vs saline
Description: (§1) Male Swiss mice (Iffa Credo, France), weighing 25-30 g, were housed four per cage (25 × 15 × 13 cm), on a 12 hr/12 hr light/dark cycle (lights on at 07:00 a.m.), with food and water ad libitum. […] Experiments with D3R-deficient mice were performed on male homozygous mutant mice and their wild-type littermates. […] The mice used in the present study were backcrossed 7 to 8 times.
Haloperidol (Janssen Pharmaceuticals, Beerse, Belgium) and clozapine (Novartis, Basel, Switzerland) were dissolved in a few drops of hydrochloric acid and distilled water, and the pH of the solution was adjusted to pH 5 to 6 using NaOH. […] The compounds were injected i.p. in a volume of 5 ml/kg.
(§2) All experiments were conducted between 2.00 p.m. and 6.00 p.m., and the animals were kept in the test room at least 1 h before recording their activity. […] Counts for forward horizontal activity were incremented each time the animal moved from one-half part of the cage to the other, corresponding to disruption of two crossed parallel beams distant of 14 cm. In time-course studies, counts were summed every 5 min.
(§3) Between-group differences were analyzed with the Statistica™ software using two-way analysis of variance (ANOVA) and Least Significance Difference (LSD) post-hoc test. The analysis of data obtained with the same animals evaluated on several occasions (time-course experiments), between-within univariate or multivariate ANOVA for repeated measures were used (time being the repeated measure).
To assess simply the in vivo biological activity of the novel compound at the D3 receptor, the above described test, in which hyperlocomotion induced by low doses of dizocilpine is measured, was used.

[2] = system: wild-type (D3R^+/+) mice; assay: MK-801-induced locomotor activity in wild-type mice; format: in vivo
Description: Male Swiss mice (Iffa Credo, France), weighing 25-30 g, were housed four per cage (25 × 15 × 13 cm), on a 12 hr/12 hr light/dark cycle (lights on at 07:00 a.m.), with food and water ad libitum. […] Experiments with D3R-deficient mice were performed on male homozygous mutant mice and their wild-type littermates. […] Subsequently, these mice were backcrossed up to 8 times with C57BL6 mice. The mice used in the present study were backcrossed 7 to 8 times.
as §2
(§4) In addition, another experiment was performed with two groups of 8 mice of each genotype, injected with either saline or haloperidol (0.05 mg/kg).
as §3

[3] = system: D3 receptor-deficient mice (D3R^-/-); assay: MK-801-induced locomotor activity in D3 receptor-deficient mice; format: in vivo; details: compound 1 mg/kg; MK-801 […]; D3R^-/- mice
Description: as §1, §2, §4, §3

[4] = system: Swiss mice; assay: Locomotor hyperactivity induced by continuous infusion of MK-801 (osmotic minipumps); format: in vivo
Description: Male Swiss mice (IFFA CREDO, France), weighing 26-28 g, were housed six per cage (25 × 15 ×13 cm), on a 12 h/12 h light/dark cycle (lights on at 07:00 a.m.), with food and water freely available. Room temperature ranged from 20° to 22°C and humidity varied between 55% and 65%.
Dizocilpine, as (+)-MK-801 maleate (Sigma), dissolved in 0.9% NaCl (saline), and its respective vehicle solution, was continuously infused via osmotic minipumps (Model 1007D, Alzet Corp.). Minipumps were filled 6 h prior to implantation and placed in a sterile saline water bath at 37°C. Taking into consideration the average weight of the mice at the time of testing, and the rate of the minipump delivery (specified by the manufacturer), the MK-801 concentration was adjusted to deliver 0.01 or 0.02 mg/kg/hr (0.48 mg/kg/day). Mice were anaesthetized with chloral hydrate (400 mg/kg i.p.), and an area on the back of the mice was shaved and cleaned with 70% ethanol. A small incision was made, a pocket beneath the skin was formed and the minipump was placed inside the pocket in each mouse. The incision was sutured, and cleaned with 70% ethanol. The mice were returned in their home cage and in about 2 h they had recovered and were active.
Once the minipumps implanted (Day 0), the locomotor activity was measured for 1h, at days 2, 4 and 7 in an actimeter (Imetronic, Pessac, France).
(§5) Between-group differences were analyzed with the Statistica™ software using two-way analysis of variance (ANOVA) and Least Significance Difference (LSD) post-hoc test. The analysis of data obtained with the same animals evaluated on several occasions (time-course experiments), between-within univariate or multivariate ANOVA for repeated measures were used (time being the repeated measure). Data from the resident-intruder assay were analyzed by analysis of variance (ANOVA), followed by a Tukey-Kramer Multiple Comparison post-hoc test.

[5] = system: MK-801-treated mice; assay: Resident-intruder assay in MK-801-treated mice; format: in vivo; details: MK-801 0.02 mg/kg/h for 7 days; compound 1 mg/kg i.p. 30 min prior testing; 5 min
Description: Male mice were housed individually or in groups of five for at least 1 week prior to minipump implantation (Day 0), delivering MK-801 (0.02 mg/kg/h) or saline (Sham), and were tested at day 7. As described in Dixon et al. (1994), a group-housed male (intruder) was placed in the home cage of the individually housed male (resident), and their behaviors were video recorded for 5 min. […] The videotaped behaviors of the resident or intruder male were individually scored, by an experimenter unaware of the treatment group, for time spent in social investigation (approaching, sniffing, grooming other mouse, and sexual behavior), and in escape behavior (actively avoiding the unfamiliar congener). The scores for each behavior were subsequently averaged for each group.
as §5

[6] = system: PD-like rats; assay: Rotations in PD-like rats (6-hydroxydopamine lesion, levodopa-treated); format: in vivo; details: saline 108 ± 7
[7] = Plasma concentrations in monkeys (radioreceptor assay); format: in vivo
[8] = Plasma concentrations in mice; format: in vivo; details: after injection at a dose giving selective effects at the D3 receptor; n = 6
[9] = system: MPTP-intoxicated monkeys; assay: Levodopa-induced dyskinesia, PD-like symptoms and locomotor activity in MPTP-intoxicated monkeys

## COc1ccccc1N1CCN(CCCCNC(=O)c2ccc3ccccc3c2)CC1 [BP 897, 1-(4-(2-Naphthoylamino)butyl)-4-(2-methoxyphenyl)-1A-piperazine]
[1]; MK-801 […], 60 min, compound i.p. 0.1, 0.3, 1 mg/kg (haloperidol 0.03, 0.1, 0.3 mg/kg), overall dose-response
  activity with MK-801: dose-dependently reduced
[1]; MK-801 […], level corresponds to saline-treated mice
  level to which locomotor activity in MK-801-treated mice was reduced: 30-40%
[1]; compound 0.3 mg/kg i.p., MK-801 […]
  MK-801-induced hyperactivity: significantly reduced
[1]; compound 1 mg/kg i.p., MK-801 […]
  MK-801-induced hyperactivity: significantly reduced
[1]; compound 1 mg/kg, MK-801 0.3 mg/kg, statistically non significant
  decrease of the activity in the presence of MK-801: 10-15%
[1]; habituation phase, 30 min starting 5 min after injection, all doses tested
  spontaneous activity: without any effect
[2]; D3R^+/+ and D3R^-/- mice
  minimal active dose to reduce the hyperactivity induced by 0.3 mg/kg of MK-801: 3 mg/kg
[2]; compound 1 mg/kg, MK-801 […], D3R^+/+ mice
  MK-801-induced activity: inhibited
[2]; compound 1 mg/kg, experiment with D3R^+/+ and D3R^-/- mice
  spontaneous activity during the habituation phase: Neither of the drugs affected
[3]
  locomotor response to MK-801: no longer able to inhibit
[4]; acute administration on the 10th day after minipump implantation, clozapine 1 mg/kg, haloperidol 0.3 mg/kg, BP 897 1 mg/kg
  MK-801-induced hyperactivity: effect similar to that produced by clozapine or haloperidol
[4]; subchronic treatment twice a day for 4.5 days from day 6, BP 897 1 mg/kg, haloperidol 0.3 mg/kg, recorded at least 6 hours after last administration
  spontaneous hyperactivity: reversed
[4]; subchronic treatment twice a day for 4.5 days from day 6, methamphetamine 1 mg/kg, recorded at least 6 hours after last administration
  methamphetamine-induced hyperactivity: reversed
[5]
  Social investigations: restored
  escape behavior: completely normalized
[6]; BP 897 0.1 mg/kg with levodopa 50 mg/kg, n = 8
  numbers of rotations: 89 ± 10
[6]; BP 897 0.3 mg/kg with levodopa 50 mg/kg, n = 17
  numbers of rotations: 91 ± 12
[6]; BP 897 1.0 mg/kg with levodopa 50 mg/kg, n = 13
  numbers of rotations: 68 ± 8
[6]; BP 897 3.0 mg/kg with levodopa 50 mg/kg, n = 13
  numbers of rotations: 66 ± 12
[7]; BP 897 5.0 or 10 mg/kg orally
  maximal plasma concentration: 280 ± 110 nM
[7]; monkey, in vivo
  time of maximal plasma concentration: 60 min
[7]; monkey, plasma
  half-life: ~1 h
[8]
  plasma concentration: 130 ± 14 nM
[9]; calculated from areas under curve, BP 897 5.0 or 10 mg/kg orally with levodopa
  attenuation of LID: 66%
[9]; from activity counts, threshold at 30% of the maximal activity, over 5 hr
  on-time duration: no difference with placebo
[9]; one monkey, BP 897 12 times
  antidyskinetic effect along repeated administrations: did not show any obvious signs of decline
[9]; tailored for each monkey, oral, with a fixed dose of levodopa, 5.0 (n = 1), 10 (n = 4)
  dose reaching a maximal effect on LID: 5.0 mg/kg and 10 mg/kg
[9]; with levodopa
  locomotor activity (activity counts): undermine the levodopa-induced activity around the dyskinesia threshold
[9]; without levodopa, two dyskinetic monkeys
  antiparkinson activity of the compound alone: no antiparkinson activity
